This is an account of results in patent US20040176371A1, “Novel pyrazolopyrimidinethione derivatives, preparation methods thereof and their use as therapeutics for erectile dysfunction” (priority 2001, published 2004).

The term IC50 denotes the midpoint of a concentration-inhibition curve.

Data set [1] deals with phosphodiesterase I (PDE I). As to the kind of experiment: Inhibitory activity against phosphodiesterase I (method of Thompson and Appleman). In kind it is biochemical. Conditions: enzyme isolated from diaphragm kidney cortex of rat. Here is the method:
(§1) In order to identify the effects of compounds of formula 1 according to the present invention on erectile dysfunction, inhibitory activities against phosphodiesterase V and other isozymes (I, III and VI) were evaluated in accordance with the following procedure.
(§2) Phosphodiesterases I, III and V were isolated from diaphragm kidney cortex of rat, phosphodiesterase VI was isolated from retina of rat. Inhibitory activities against the isolated enzymes were evaluated by the method of Thompson and Appleman (Thompson and Appleman, Biochemistry, 1971, 10, 311-316). A reaction mixture for enzyme activity [Total volume 100 μl: PDE enzymes (Column fraction 20˜40 μl), […] and 20 μl M calmodulin (10 μl addition for PDE I), [^3H]-cAMP, [^3H]-cGMP(1 μCi/μl), compound of formula 1 (0.01 nM˜1 μM), 50 mM Tris-HCl buffer solution (pH 7.4), 15 mM MgCl2, distilled water] was incubated in a water bath at 30° C. for 30 minutes, and then heat-denatured at 100° C. for 2 minutes to denature enzymes. After the reaction mixture was cooled down on ice, 250 μg/ml venom was added thereto. The resulting mixture was incubated at 30° C. for 10 minutes, and then 0.5 ml of cold d-H2O was added thereto to obtain a specimen. Guanine was separated from the specimen using an anion exchange resin (DEAE Sephacel A-25 anion exchange column). To measure the IC50 of specimen, radioactivity was counted by β-counter after treatment with 10 ml of scintillation cocktail solution.

Data set [2] has as its target T1, phosphodiesterase V (PDE V) (Rattus norvegicus, UniProt O54735).
T1 construct: Phosphodiesterases I, III and V were isolated from diaphragm kidney cortex of rat; from tissue; host or cells: rat 'diaphragm kidney cortex'
Briefly: Inhibitory activity against phosphodiesterase V (method of Thompson and Appleman). In kind it is biochemical. Conditions: enzyme isolated from diaphragm kidney cortex of rat. Here is the method:
as §1
as §2, with “Inhibitory activities against the isolated enzymes were evaluated by the method of Thompson and Appleman (Thompson and Appleman, Biochemistry, 1971, 10, 311-316).” left out

Data set [3] deals with phosphodiesterase III (PDE III). As to the kind of experiment: Inhibitory activity against phosphodiesterase III (method of Thompson and Appleman). In kind it is biochemical. Conditions: enzyme isolated from diaphragm kidney cortex of rat. The procedure: as §1, §2
The subject of data set [4] is ICR mice. As to the kind of experiment: Acute toxicity when administered orally to mouse. In kind it is in vivo. The note with it: single oral administration, both male and female. Here is the method: In order to evaluate the toxicity of the compounds of formula 1 according to the present invention, an experiment was performed as described below.
The compound prepared in the Example 5 was administered orally to four ICR mice (2 male, 2 female) once at a dose of 128, 320, 800, 2000 and 5000 mg/kg, respectively. 7 days after the administration, mortality rate, general symptoms, changes in weight, and autopsy results were recorded.

Take `CCCc1nn(C)c2c(=S)[nH]c(-c3cc(S(=O)(=O)N4CCNCC4)ccc3OCC)nc12` [Example 9, 5-[2-ethoxy-5-(piperazine-1-sulfonyl)phenyl]-1-methyl-3-propyl-1,6-dihydropyrazolo[4,3-d]pyrimidine-7-thione]: the results for the half-inhibitory concentration (IC50) in data set [1], in data set [2] and in data set [3] were 2430 nM, 0.62 nM and 5630 nM, respectively.

On to `CCCOc1ccc(S(=O)(=O)N2CCN(CCO)CC2)cc1-c1nc2c(CCC)nn(C)c2c(=S)[nH]1` [Example 12, 5-{5-[4-(2-hydroxyethyl)piperazine-1-sulfonyl]-2-propoxyphenyl}-1-methyl-3-propyl-1,6-dihydropyrazolo[4,3-d]pyrimidine-7-thione], for which the IC50 was 10 nM in data set [1], 0.46 nM in data set [2] and 1080 nM in data set [3].

Consider `CCCc1nn(C)c2c(=S)[nH]c(-c3cc(S(=O)(=O)N4CCN(C)CC4)ccc3OCC)nc12` [Example 5, 5-[2-ethoxy-5-(4-methylpiperazine-1-sulfonyl)phenyl]-1-methyl-3-propyl-1,6-dihydropyrazolo[4,3-d]pyrimidine-7-thione], for which the IC50 in data set [1] is 1890 nM; in data set [2] it was 0.59 nM; in data set [3], 1250 nM. For the same molecule, in data set [4], the minimal lethal dose entry is reported as “more than 5000 mg/kg”.

With `CCCc1nn(C)c2c(=O)[nH]c(-c3cc(S(=O)(=O)N4CCN(C)CC4)ccc3OCC)nc12` [Sildenafil, reference compound], the IC50 is 2250 nM in data set [1] and 1750 nM in data set [3].

For the molecule `CCCOc1ccc(S(=O)(=O)N2CCN(C)CC2)cc1-c1nc2c(CCC)nn(C)c2c(=S)[nH]1` [Example 10, 1-methyl-5-[5-(4-methylpiperazine-1-sulfonyl)-2-propoxyphenyl]-3-propyl-1,6-dihydropyrazolo[4,3-d]pyrimidine-7-thione], the IC50 in data set [1] came to 620 nM; in data set [2], 0.58 nM; in data set [3], 1030 nM.

Regarding `CCCc1nn(C)c2c(=S)[nH]c(-c3cc(S(=O)(=O)N4CCN(CCO)CC4)ccc3OCC)nc12` [Example 7, 5-{2-ethoxy-5-[4-(2-hydroxyethyl)piperazine-1-sulfonyl]phenyl}-1-methyl-3-propyl-1,6-dihydropyrazolo[4,3-d]pyrimidine-7-thione], the figures for the IC50 in data set [1], in data set [2] and in data set [3] were 110 nM, 0.4 nM and 3020 nM, respectively.
